From patent US8975263B2, “Phenylxanthene derivatives” (Daiichi Sankyo Company, Limited, priority 2013, dated 2015)

Tested on: C57BL/6J mice
Assay: Oral glucose tolerance test
Assay type: in vivo
Conditions: male C57BL/6J mice, fasted overnight, oral gavage 10 mg/kg, glucose 3 g/kg orally 30 minutes after compound, area under the curve of blood glucose level relative to control group
Procedure: Commercially available mice (C57BL/6J mice; male; 8 to 12 weeks old when used; distributed by Charles River Laboratories Japan, Inc.) were used.
After acclimatization with freely feeding (FR-2, Funabashi Farm Co., Ltd.) for one week or more, the mice were fasted overnight and then used for the test. A 0.5% methylcellulose (Wako Pure Chemical Industries, Ltd.) solution (0.5% MC) containing a test compound at a concentration of 1 mg/ml and a mixed solution (PG:Tween) of propylene glycol (80 v/v %, Nacalai Tesque, Inc.) and Tween 80 (20 v/v %, Nacalai Tesque, Inc.) containing a test compound at a concentration of 2 mg/ml were prepared for administration to the mice. The prepared solution was administered by oral gavage to four or five mice in each group at a dose of 10 mg/kg as the test compound. For a control group, a 0.5% methylcellulose solution (dose: 10 ml/kg) or a mixed solution of propylene glycol and Tween 80 (dose: 5 ml/kg) was orally administered to mice. An oral glucose tolerance test was carried out by administering a glucose solution (Otsuka Glucose Solution 50%; Otsuka Pharmaceutical Factory, Inc.) orally at a dose of 3 g/kg to the mice 30 minutes after administration of the test compound.
Blood was collected from the tail vein of each mouse immediately before administration of the test compound (T0), […] after administration of the test compound (T1), and 30 minutes (T2) and 90 minutes (T3) after oral glucose loading. The blood glucose level was measured using a blood glucose level measuring apparatus (ACCU-CHEK Aviva; Roche Diagnostics, K.K.). The blood glucose level T1 was analyzed as a value obtained 30 minutes after administration of the compound and immediately before glucose loading. According to the following formula, the area under the curve of blood glucose level was calculated, and thereafter, the blood glucose lowering rate (%) was calculated as a value relative to the control group. The area under the curve of blood glucose level=[(blood glucose level T0+blood glucose level T1)×30]÷2+[(blood glucose level T1+blood glucose level T2)×30]÷2+[(blood glucose level T2+blood glucose level T3)×60]÷2 Blood glucose lowering rate(%)=[1−(the area under the curve of blood glucose level for the test compound group/the area under the curve of blood glucose level for the control group)]×100

Row | SMILES | Blood glucose lowering rate (%) (solvent 0.5% MC) | Blood glucose lowering rate (%) (solvent PG:Tween)
1 | CCc1ccc(-c2ccc(OC)c(C3C4=C(CC(C)(C)CC4=O)OC4=C3C(=O)CC(C)(C)C4)c2)nc1C(=O)O [Example 45, 3-Ethyl-6-[4-methoxy-3-(3,3,6,6-tetramethyl-1,8-dioxo-2,3,4,5,6,7,8,9-octahydro-1H-xanthen-9-yl)phenyl]pyridine-2-carboxylic acid] | 42% | 
2 | CCc1ccc(-c2ccc(OC)c(C3C4=C(CC(C)(C)CC4=O)OC4=C3C(=O)CC(C)(C)C4)c2)nc1C(=O)NS(C)(=O)=O [Example 46, 3-Ethyl-6-[4-methoxy-3-(3,3,6,6-tetramethyl-1,8-dioxo-2,3,4,5,6,7,8,9-octahydro-1H-xanthen-9-yl)phenyl]-N-(methylsulfonyl)pyridine-2-carboxamide] | 47% | 
3 | COc1ccc(-c2cc3c(c(C(=O)O)n2)CCCC3)c(C)c1C1C2=C(CC(C)(C)CC2=O)OC2=C1C(=O)CC(C)(C)C2 [Example 47, 3-[4-Methoxy-2-methyl-3-(3,3,6,6-tetramethyl-1,8-dioxo-2,3,4,5,6,7,8,9-octahydro-1H-xanthen-9-yl)phenyl]-5,6,7,8-tetrahydroisoquinoline-1-carboxylic acid] | 56% | 
4 | COc1ccc(-c2ccc(N)c(C(=O)O)n2)c(C)c1C1C2=C(CC(C)(C)CC2=O)OC2=C1C(=O)CC(C)(C)C2 [Example 48, 3-Amino-6-[4-methoxy-2-methyl-3-(3,3,6,6-tetramethyl-1,8-dioxo-2,3,4,5,6,7,8,9-octahydro-1H-xanthen-9-yl)phenyl]pyridine-2-carboxylic acid] | 62% | 
5 | COc1ccc(-c2ccc(N)c(C(=O)NS(C)(=O)=O)n2)c(C)c1C1C2=C(CC(C)(C)CC2=O)OC2=C1C(=O)CC(C)(C)C2 [Example 49, 3-Amino-6-[4-methoxy-2-methyl-3-(3,3,6,6-tetramethyl-1,8-dioxo-2,3,4,5,6,7,8,9-octahydro-1H-xanthen-9-yl)phenyl]-N-(methylsulfonyl)pyridine-2-carboxamide] | 34% | 
6 | COc1ccc(-c2ccc(N)c(C(=O)O)n2)cc1C1C2=C(CC(C)(C)CC2=O)OC2=C1C(=O)CC(C)(C)C2 [Example 51, 3-Amino-6-[4-methoxy-3-(3,3,6,6-tetramethyl-1,8-dioxo-2,3,4,5,6,7,8,9-octahydro-1H-xanthen-9-yl)phenyl]pyridine-2-carboxylic acid] | 39% | 
7 | COc1ccc(-c2ccc(N)c(C(=O)NS(C)(=O)=O)n2)cc1C1C2=C(CC(C)(C)CC2=O)OC2=C1C(=O)CC(C)(C)C2 [Example 52, 3-Amino-6-[4-methoxy-3-(3,3,6,6-tetramethyl-1,8-dioxo-2,3,4,5,6,7,8,9-octahydro-1H-xanthen-9-yl)phenyl]-N-(methylsulfonyl)pyridine-2-carboxamide] | 44% | 
8 | CNc1ccc(-c2ccc(OC)c(C3C4=C(CC(C)(C)CC4=O)OC4=C3C(=O)CC(C)(C)C4)c2C)nc1C(=O)O [Example 53, 6-[4-Methoxy-2-methyl-3-(3,3,6,6-tetramethyl-1,8-dioxo-2,3,4,5,6,7,8,9-octahydro-1H-xanthen-9-yl)phenyl]-3-(methylamino)pyridine-2-carboxylic acid] | 64% | 
9 | CNc1ccc(-c2ccc(OC)c(C3C4=C(CC(C)(C)CC4=O)OC4=C3C(=O)CC(C)(C)C4)c2C)nc1C(=O)NS(C)(=O)=O [Example 54, 6-[4-Methoxy-2-methyl-3-(3,3,6,6-tetramethyl-1,8-dioxo-2,3,4,5,6,7,8,9-octahydro-1H-xanthen-9-yl)phenyl]-3-(methylamino)-N-(methylsulfonyl)pyridine-2-carboxamide] | 49% | 
10 | COc1ccc(-c2ccnc(C(N)=O)n2)c(C)c1C1C2=C(CC(C)(C)CC2=O)OC2=C1C(=O)CC(C)(C)C2 [Example 75, 4-[4-Methoxy-2-methyl-3-(3,3,6,6-tetramethyl-1,8-dioxo-2,3,4,5,6,7,8,9-octahydro-1H-xanthen-9-yl)phenyl]pyrimidine-2-carboxylic acid amide] |  | 35%
11 | COc1ccc(-c2ccnc(CO)n2)c(C)c1C1C2=C(CC(C)(C)CC2=O)OC2=C1C(=O)CC(C)(C)C2 [Example 76, 9-{3-[2-(Hydroxymethyl)pyrimidin-4-yl]-6-methoxy-2-methylphenyl}-3,3,6,6-tetramethyl-3,4,5,6,7,9-hexahydro-1H-xanthene-1,8(2H)-dione] | 33% | 
